Results taken from ChEMBL document CHEMBL1177822, “Synthesis and anti-HIV activity of 2'-deoxy-2'-fluoro-4'-C-ethynyl nucleoside analogs” (Bioorg Med Chem Lett, 2010).

Key:
[1] = tested on: Human immunodeficiency virus 1; experiment: Antiviral activity against HIV1 bearing VSV glycoprotein infected in human MT2 cells assessed as inhibition of viral replication after 48 hrs by luciferase reporter gene assay; type: functional, organism-based; conditions: Human immunodeficiency virus 1, MT2, 48 h
[2] = Cytotoxicity against human MT2 cells by MTT assay; type: cell-based
[3] = tested on: Human immunodeficiency virus 1; experiment: Ratio of compound IC50 to 1-(20-deoxy-40-C-ethynyl-beta-D-arabinofuranosyl)-thymine IC50 for HIV1 bearing VSV glycoprotein infected in human MT2 cells assessed as inhibition of viral replication after 48 hrs by luciferase reporter gene assay; type: functional
[4] = tested on: Human immunodeficiency virus 1; experiment: Antiviral activity against wild type HIV1 NL4-3 infected in human TZM-bl cells assessed as inhibition of viral replication after 4 days by p24 based ELISA; type: functional, organism-based; conditions: Human immunodeficiency virus 1, NL4-3, TZM-bl, 96 h
[5] = tested on: Human immunodeficiency virus 1; experiment: Antiviral activity against HIV1 NL4-3 with reverse transcriptase K101E mutant infected in human TZM-bl cells assessed as inhibition of viral replication after 4 days by p24 based ELISA; type: functional, organism-based; conditions: Human immunodeficiency virus 1, NL4-3, TZM-bl, 96 h
[6] = tested on: Human immunodeficiency virus 1; experiment: Antiviral activity against reverse transcriptase multidrug-resistant HIV1 infected in human TZM-bl cells assessed as inhibition of viral replication after 4 days by p24 based ELISA; type: functional, organism-based; conditions: Human immunodeficiency virus 1, TZM-bl, 96 h
[7] = tested on: Human immunodeficiency virus 1; experiment: Ratio of compound IC50 to zidovudine IC50 for HIV1 bearing VSV glycoprotein infected in human MT2 cells assessed as inhibition of viral replication after 48 hrs by luciferase reporter gene assay; type: functional

| SMILES | IC50 [1] [nM] | CC50 [2] [nM] | Ratio IC50 [3] | IC50 [4] [nM] | IC50 [5] [nM] | IC50 [6] [nM] | Ratio IC50 [7] |
| --- | --- | --- | --- | --- | --- | --- | --- |
| C#C[C@]1(CO)O[C@@H](n2cc(C)c(=O)[nH]c2=O)[C@@H](F)[C@@H]1O | 86 | > 10000 | 10 | – | – | – | – |
| C#C[C@]1(CO)O[C@@H](n2ccc(=O)[nH]c2=O)[C@@H](F)[C@@H]1O | 6530 | > 10000 | – | – | – | – | – |
| C#C[C@]1(CO)O[C@@H](n2ccc(N)nc2=O)[C@@H](F)[C@@H]1O | 1.34 | > 10000 | – | 0.46 | 1.52 | 1.45 | 35 |
| Cc1cn([C@H]2C[C@H](N=[N+]=[N-])[C@@H](CO)O2)c(=O)[nH]c1=O [ZIDOVUDINE] | 47 | > 200000 | – | – | – | – | – |
